We go through 4 compounds from PMC9088311, “Cyclic Thiosulfonates for Thiol-Mediated Uptake: Cascade Exchangers, Transporters, Inhibitors” (JACS Au, 2022).

The subject of one experiment is HK cells, transporter 31. The experiment can be described thus: HCHT imaging: inhibition of cytosolic delivery of ETP transporter 31. It is filed as cell-based, Human. As to conditions: inhibitor 1 h; for IC15: read-out: MIC (concentration needed to reach 15% inhibition), transporter 31 10 μM. The essentials:
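HeLa Kyoto cells grown 24 h in FluoroBrite DMEM + 10% FBS on 96-well black plates were exposed to serially diluted inhibitors for 1 h at 37 °C, then given fluorescent transporter 31 at 10 μM for 30 min, either after washing the inhibitor out (pre-incubation) or with it still present (co-incubation). Cytosolic delivery was then scored by automated HCHT live-cell imaging with Hoechst 33342 and PI staining.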

A further experiment relates to HK cells, transporter 28. The experiment can be described thus: HCHT imaging: inhibition of cytosolic delivery of CTO transporter 28. As to conditions: inhibitor 1 h; for IC50 / IC15: Homo sapiens; for IC15: read-out: MIC (concentration needed to reach 15% inhibition), transporter 28 5 μM. It is filed as cell-based, Human.
[1] abbreviates: Homo sapiens, 1 h, read-out: IC50 (concentration needed to reach 50% inhibition), transporter 31 10 μM, co-incubation (C).
Setting [2] is: Homo sapiens, 1 h, co-incubation (C).
[3] abbreviates: transporter 31 10 μM, co-incubation (C).
Where [4] appears, read: transporter 28 5 μM, co-incubation (C).
[5] abbreviates: read-out: IC50 (concentration needed to reach 50% inhibition), transporter 28 5 μM, pre-incubation (P).

Where two headings read alike, the source gives them in different places. Where only a bound is given, the exact number is not on record here.

`O=C1O[C@H]2CSS(=O)(=O)C[C@H]2O1` [Compound 11]: the IC50 in the experiment with HK cells, transporter 31 (setting [1]) was over 50 µM; in the experiment on HK cells, transporter 31 (Homo sapiens, read-out: IC50 (concentration needed to reach 50% inhibition), transporter 31 10 μM, pre-incubation (P)), 9 µM; in the experiment with HK cells, transporter 28 (1 h, read-out: IC50 (concentration needed to reach 50% inhibition), transporter 28 5 μM, co-incubation (C)), 70 ± 20 µM. Besides, the IC15 is under 5 µM in the experiment on HK cells, transporter 31 (setting [2]); 1.5 µM in the experiment on HK cells, transporter 31 (Homo sapiens, 1 h, pre-incubation (P)); under 1 µM with HK cells, transporter 28 (1 h, co-incubation (C)). Moreover, the “MIC (concentration needed to reach 15% inhibition)” value is under 5 µM in the experiment on HK cells, transporter 31 (setting [3]) and under 1 µM with HK cells, transporter 28 (setting [4]).

Consider `O=S1(=O)C[C@H](O)[C@H](O)CS1` (stereo in doubt) [Compound 3, (4S,5R)-4,5-dihydroxy-1,2-dithiane-1,1-dioxide], for which the IC50 in the experiment with HK cells, transporter 31 (setting [1]) stood at 35 µM; in the experiment on HK cells, transporter 28 (setting [5]), 60 µM. The IC15 was 3 µM in the experiment on HK cells, transporter 31 (setting [2]) and 5 µM in the experiment with HK cells, transporter 28 (1 h, pre-incubation (P)). Further, the “MIC (concentration needed to reach 15% inhibition)” value with HK cells, transporter 31 (setting [3]) was 3 µM.

As for `O=S1(=O)C=C[C@@H](O)CS1` [Compound 12], the IC50 in the experiment on HK cells, transporter 31 (setting [1]) is 7.2 ± 0.9 µM; with HK cells, transporter 31 (read-out: IC50 (concentration needed to reach 50% inhibition), transporter 31 10 μM, co-incubation (C)) it was 7 µM; with HK cells, transporter 28 (read-out: IC50 (concentration needed to reach 50% inhibition), transporter 28 5 μM, co-incubation (C)) it was 60 µM. In addition, the IC15 is under 1 µM in the experiment with HK cells, transporter 31 (setting [2]) and 4.8 µM in the experiment with HK cells, transporter 28 (1 h, co-incubation (C)). Besides, the “MIC (concentration needed to reach 15% inhibition)” value in the experiment on HK cells, transporter 31 (setting [3]) is under 1 µM; with HK cells, transporter 28 (setting [4]), 5 µM.

On to `[O-][S+]1C[C@@H](O)[C@@H](O)CS1` (some centres unmarked) [Compound 2], for which the IC15 in the experiment with HK cells, transporter 28 (1 h, pre-incubation (P)) was over 50 µM. The IC50 in the experiment with HK cells, transporter 28 (setting [5]) was over 100 µM. Besides, the “MIC (concentration needed to reach 15% inhibition)” value with HK cells, transporter 28 (transporter 28 5 μM, pre-incubation (P)) was over 50 µM.
